Patent US20080139664A1, “ANTI-GLYCATION AGENTS FOR PREVENTING AGE-, DIABETES-, AND SMOKING-RELATED COMPLICATIONS” (NATIONAL RESEARCH COUNCIL OF CANADA, priority 2001, published 2008)
pIC50: −log10 of the molar value. Where two headings read alike, the source gives them in different places.

Experiments:
[1] = test system: bovine serum albumin (BSA); experiment: Fluorescamine assay of free primary amino groups of BSA incubated with D-ribose; assay type: biochemical; conditions: free primary amino group on BSA after 5 days at 37° C.; agent at 16.8 times IC50; 64% without agent
Experimental: Fluorescamine assay (Yeboah F. et al., J. Agric. Food Chem. 48, 2766-2774 (2000)) was performed on incubated mixtures of BSA and D-ribose, with or without the identified anti-glycation agents. The mixtures contained BSA (0.075 mM protein concentration or 4.53 mM of Lys residue concentration) and D-ribose (50 mM). […] The fluorescamine assay determines the number of free lysine residues of BSA. In this experiment, the final volume of the incubation mixtures was 10 mL and the incubation time was 5 days at 37° C. Prior to the fluorescamine assay, the proteins were isolated by reverse phase HPLC. The protein content was determined using the Bio-Rad protein determination reagent (Bradford method). The fluorescamine assay was done in triplicate.

[2] = test system: bovine serum albumin (BSA)
lysozyme = experiment: ESI-MS of lysozyme glycoforms after incubation with D-ribose; conditions: 37° C., 5 days; for Peak area as % of total area of all glycoforms, 14,569: lysozyme + 2D-ribose − 2H2O (14,569 Da); for Peak area as % of total area of all glycoforms, 14,551: lysozyme + 2D-ribose − 3H2O (14,551 Da); for Peak area as % of total area of all glycoforms, 14,533: lysozyme + 2D-ribose − 5H2O (14,533 Da); for Peak area as % of total area of all glycoforms, 14,515: lysozyme + 2D-ribose − 6H2O (14,515 Da); for Peak area as % of total area of all glycoforms, 14,419: lysozyme + D-ribose − 2H2O (14,419 Da); for Peak area as % of total area of all glycoforms, 14,401: lysozyme + D-ribose − 3H2O (14,401 Da); for Peak area as % of total area of all glycoforms, 14,437: lysozyme + D-ribose − H2O (14,437 Da); for Peak area as % of total area of all glycoforms, 14,496: lysozyme + D-ribose − H2O with one carboxymethylated Lys residue (14,496 Da); for Peak area as % of total area of all glycoforms, 14,364: lysozyme with one carboxymethylated Lys residue (14,364 Da); for Peak area as % of total area of all glycoforms, 14,305: unmodified lysozyme (14,305 Da);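 for all read-outs here: lysozyme incubated with D-ribose, with or without anti-glycation agents, then separated by reversed-phase HPLC and analysed by electrospray mass spectrometry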
[3] = test system: bovine serum albumin (BSA); experiment: Maillard fluorescence-based assay of AGEs formation, IC50 determination (BSA + D-ribose); conditions: for pIC50: inhibition of Maillard fluorescence development, 0.075 mM BSA, 50 mM D-ribose, 37° C., 5 days

C[C@@](Cc1ccc(O)c(O)c1)(NN)C(=O)O [S(−)-Carbidopa]
Unreacted amino group [1]: 89% | pIC50 [2]: 3.85 | Peak area as % of total area of all glycoforms, 14,569 (lysozyme): 0.0% | Peak area as % of total area of all glycoforms, 14,551 (lysozyme): 2.4% | Peak area as % of total area of all glycoforms, 14,533 (lysozyme): 0.8% | Peak area as % of total area of all glycoforms, 14,515 (lysozyme): 0.6% | Peak area as % of total area of all glycoforms, 14,419 (lysozyme): 3.2% | Peak area as % of total area of all glycoforms, 14,401 (lysozyme): 2.0% | Peak area as % of total area of all glycoforms, 14,437 (lysozyme): 18.4% | Peak area as % of total area of all glycoforms, 14,496 (lysozyme): 0.9% | Peak area as % of total area of all glycoforms, 14,364 (lysozyme): 3.7% | Peak area as % of total area of all glycoforms, 14,305 (lysozyme): 67.9%

Oc1ccc(CC2NCCc3cc(O)c(O)cc32)cc1O (racemic) [(±)-Tetrahydropapaveroline]
Unreacted amino group [1]: 51% | pIC50 [2]: 4.05 | Peak area as % of total area of all glycoforms, 14,569 (lysozyme): 2.3% | Peak area as % of total area of all glycoforms, 14,551 (lysozyme): 0.7% | Peak area as % of total area of all glycoforms, 14,533 (lysozyme): 0.8% | Peak area as % of total area of all glycoforms, 14,515 (lysozyme): 0.0% | Peak area as % of total area of all glycoforms, 14,419 (lysozyme): 2.8% | Peak area as % of total area of all glycoforms, 14,401 (lysozyme): 2.1% | Peak area as % of total area of all glycoforms, 14,437 (lysozyme): 17.6% | Peak area as % of total area of all glycoforms, 14,496 (lysozyme): 0.9% | Peak area as % of total area of all glycoforms, 14,364 (lysozyme): 3.9% | Peak area as % of total area of all glycoforms, 14,305 (lysozyme): 68.9%

O=c1c(O)c(-c2ccccc2)oc2cc(O)cc(O)c12 [Galangin]
Unreacted amino group [1]: 64% | pIC50 [2]: 3.96 | Peak area as % of total area of all glycoforms, 14,569 (lysozyme): 4.3% | Peak area as % of total area of all glycoforms, 14,551 (lysozyme): 5.2% | Peak area as % of total area of all glycoforms, 14,533 (lysozyme): 2.2% | Peak area as % of total area of all glycoforms, 14,515 (lysozyme): 1.0% | Peak area as % of total area of all glycoforms, 14,419 (lysozyme): 10.2% | Peak area as % of total area of all glycoforms, 14,401 (lysozyme): 0.8% | Peak area as % of total area of all glycoforms, 14,437 (lysozyme): 20.2% | Peak area as % of total area of all glycoforms, 14,496 (lysozyme): 0.0% | Peak area as % of total area of all glycoforms, 14,364 (lysozyme): 4.1% | Peak area as % of total area of all glycoforms, 14,305 (lysozyme): 48.0%

Cc1ncc([N+](=O)[O-])n1CC(O)CCl (stereo not shown) [Ornidazole]
Unreacted amino group [1]: 60% | pIC50 [2]: 3.24 | Peak area as % of total area of all glycoforms, 14,569 (lysozyme): 4.8% | Peak area as % of total area of all glycoforms, 14,551 (lysozyme): 3.4% | Peak area as % of total area of all glycoforms, 14,533 (lysozyme): 2.0% | Peak area as % of total area of all glycoforms, 14,515 (lysozyme): 0.9% | Peak area as % of total area of all glycoforms, 14,419 (lysozyme): 6.7% | Peak area as % of total area of all glycoforms, 14,401 (lysozyme): 0.0% | Peak area as % of total area of all glycoforms, 14,437 (lysozyme): 23.4% | Peak area as % of total area of all glycoforms, 14,496 (lysozyme): 0.0% | Peak area as % of total area of all glycoforms, 14,364 (lysozyme): 3.2% | Peak area as % of total area of all glycoforms, 14,305 (lysozyme): 54.2%

O=[N+]([O-])c1cc([As](=O)(O)O)ccc1O [Roxarsone]
pIC50 [3]: 3.64 | Peak area as % of total area of all glycoforms, 14,569 (lysozyme): 5.1% | Peak area as % of total area of all glycoforms, 14,551 (lysozyme): 1.3% | Peak area as % of total area of all glycoforms, 14,533 (lysozyme): 1.2% | Peak area as % of total area of all glycoforms, 14,515 (lysozyme): 0.0% | Peak area as % of total area of all glycoforms, 14,419 (lysozyme): 3.1% | Peak area as % of total area of all glycoforms, 14,401 (lysozyme): 0.0% | Peak area as % of total area of all glycoforms, 14,437 (lysozyme): 27.0% | Peak area as % of total area of all glycoforms, 14,496 (lysozyme): 0.0% | Peak area as % of total area of all glycoforms, 14,364 (lysozyme): 0.0% | Peak area as % of total area of all glycoforms, 14,305 (lysozyme): 62.4%

N[C@@H](Cc1ccc(O)c(O)c1)C(=O)O [L-DOPA]
Unreacted amino group [1]: 60% | pIC50 [2]: 4.12 | Peak area as % of total area of all glycoforms, 14,569 (lysozyme): 3.0% | Peak area as % of total area of all glycoforms, 14,551 (lysozyme): 0.7% | Peak area as % of total area of all glycoforms, 14,533 (lysozyme): 0.8% | Peak area as % of total area of all glycoforms, 14,515 (lysozyme): 0.7% | Peak area as % of total area of all glycoforms, 14,419 (lysozyme): 2.1% | Peak area as % of total area of all glycoforms, 14,401 (lysozyme): 1.8% | Peak area as % of total area of all glycoforms, 14,437 (lysozyme): 21.1% | Peak area as % of total area of all glycoforms, 14,496 (lysozyme): 1.2% | Peak area as % of total area of all glycoforms, 14,364 (lysozyme): 3.9% | Peak area as % of total area of all glycoforms, 14,305 (lysozyme): 64.7%

NC(=O)N/N=C/c1ccc([N+](=O)[O-])o1 [Nitrofurazone]
maximum percentage of the inhibition ([3]; Maillard fluorescence, listed if significantly lower than 100%): 50%) | pIC50 [3]: 4.34 | Peak area as % of total area of all glycoforms, 14,569 (lysozyme): 4.2% | Peak area as % of total area of all glycoforms, 14,551 (lysozyme): 2.8% | Peak area as % of total area of all glycoforms, 14,533 (lysozyme): 2.4% | Peak area as % of total area of all glycoforms, 14,515 (lysozyme): 1.1% | Peak area as % of total area of all glycoforms, 14,419 (lysozyme): 5.8% | Peak area as % of total area of all glycoforms, 14,401 (lysozyme): 0.0% | Peak area as % of total area of all glycoforms, 14,437 (lysozyme): 21.4% | Peak area as % of total area of all glycoforms, 14,496 (lysozyme): 0.0% | Peak area as % of total area of all glycoforms, 14,364 (lysozyme): 1.6% | Peak area as % of total area of all glycoforms, 14,305 (lysozyme): 60.8%

Nc1ncc([N+](=O)[O-])cn1 [2-Amino-5-nitropyrimidine]
pIC50 [3]: 3.09 | Peak area as % of total area of all glycoforms, 14,569 (lysozyme): 4.7% | Peak area as % of total area of all glycoforms, 14,551 (lysozyme): 3.8% | Peak area as % of total area of all glycoforms, 14,533 (lysozyme): 2.0% | Peak area as % of total area of all glycoforms, 14,515 (lysozyme): 0.9% | Peak area as % of total area of all glycoforms, 14,419 (lysozyme): 7.7% | Peak area as % of total area of all glycoforms, 14,401 (lysozyme): 0.0% | Peak area as % of total area of all glycoforms, 14,437 (lysozyme): 23.0% | Peak area as % of total area of all glycoforms, 14,496 (lysozyme): 0.0% | Peak area as % of total area of all glycoforms, 14,364 (lysozyme): 3.6% | Peak area as % of total area of all glycoforms, 14,305 (lysozyme): 52.9%

CC(CCc1ccccc1)NC(C)C(O)c1ccc(O)cc1 (stereo not shown) [Nylidrin]
pIC50 [3]: 2.74

COC1=C[C@@H]2[C@@H]3Cc4ccc(OC)c(O)c4[C@]2(CCN3C)CC1=O [Sinomenine]
pIC50 [3]: < 2.40

Oc1ccc(Cl)c2cccnc12 [Cloxiquine]
pIC50 [3]: 3.36

O=c1cc(-c2ccc(O)c(O)c2)oc2ccccc12 [3′.4′-Dihydroxyflavone]
pIC50 [3]: 2.59

O=c1cc(-c2ccc(O)c(O)c2)oc2ccc(O)cc12 [6,3′,4′-Trihydroxyflavone]
pIC50 [3]: < 2.40 | Peak area as % of total area of all glycoforms, 14,569 (lysozyme): 4.0% | Peak area as % of total area of all glycoforms, 14,551 (lysozyme): 4.0% | Peak area as % of total area of all glycoforms, 14,533 (lysozyme): 1.6% | Peak area as % of total area of all glycoforms, 14,515 (lysozyme): 0.6% | Peak area as % of total area of all glycoforms, 14,419 (lysozyme): 8.8% | Peak area as % of total area of all glycoforms, 14,401 (lysozyme): 0.3% | Peak area as % of total area of all glycoforms, 14,437 (lysozyme): 21.5% | Peak area as % of total area of all glycoforms, 14,496 (lysozyme): 0.0% | Peak area as % of total area of all glycoforms, 14,364 (lysozyme): 2.0% | Peak area as % of total area of all glycoforms, 14,305 (lysozyme): 56.4%

O=[N+]([O-])c1ccc(O)cc1 [p-Nitrophenol]
pIC50 [3]: < 2.40

COc1ccc(-c2cc(=O)c3c(O)cc(O)cc3o2)cc1 [Acacetin]
pIC50 [3]: 3.29

O=C1CCN(c2ccccc2)N1 [Phenidone]
pIC50 [3]: 2.89

CCCCCCCCCCCCCCCC(=O)OC[C@@H](NC(=O)C(Cl)Cl)[C@H](O)c1ccc([N+](=O)[O-])cc1 [Chloramphenicol palmitate]
pIC50 [3]: < 2.40

COCC(N)c1ccc(O)c(O)c1 (stereo not drawn) [3,4-Dihydroxy-1-[(α-amino-β-methoxy)ethyl]benzene]
pIC50 [3]: 4.11

Cn1c([N+](=O)[O-])cnc1COC(N)=O [Ronidazole]
pIC50 [3]: 3.02
